Measurements as given in patent US5603943A, “Nasally administrable compositions” (Dott Research Laboratory, priority 1994, dated 1997).
Where “and” joins values, the source holds several entries; their conditions need not be identical. Equal values may be shown once.

Experiments:
[1] = Glucagon blood concentration, nasal powder with calcium carbonate, two doses (Test Example 12); assay type: in vivo, healthy male adults (human)
Method: (§1) A nasally administrable composition in powdery form was prepared by formulating glucagon (from hog spleen) as a physiologically active peptide at the rate of 40 mg per composition (1,000 mg) with calcium carbonate as a carrier having a mean particle size ranging from 40 to 45 μm.
(§2) The resulting composition was nasally administered once at a dose of 0.4 glucagon unit/30 mg to two healthy male adults and 2 glucagon unit/30 mg to another two healthy male adults, and the blood (2.5 ml) was collected from each of the tested adults prior to administration and then at 5, 10, 15, 20, 30, 45, 60, 90, 120, 150 and 180 minutes after administration. The concentration of the glucagon in each of the collected blood samples was assayed with a standard RIA assay kit.

[2] = Glucagon blood concentration, nasal powder with calcium carbonate (Test Example 9); assay type: in vivo, healthy male adults (human); settings: for Concentration of glucagon in the blood: nasal 1.2 glucagon unit/30 mg, individual cases No. 21-24 in order
Method: as §1
[…] The concentration of the glucagon in each of the collected blood samples was assayed with a standard RIA assay kit.

[3] = Glucagon blood concentration, nasal powder with hydroxyapatite (Test Example 8); assay type: in vivo, healthy male adults (human)
Method: A nasally administrable composition in powdery form was prepared by formulating glucagon (from hog spleen) as a physiologically active peptide at the rate of 40 mg per composition (1,000 mg) with hydroxyapatite as a carrier having a mean particle size ranging from 40 to 45 μm.
as §2, with “1.2” for “0.4”, “three” for “two”, “adults” for “adults and 2 glucagon unit/30 mg to another two healthy male adults,”

[4] = Nasal absorption, clinical effect and irritation (general statement); assay type: in vivo; settings: powder in specific carrier, nasal route

glucagon
Concentration of glucagon in the blood ([1]; 0 min (predose), nasal 0.4 glucagon unit/30 mg, individual cases No. 33-34 in order): 112 pg/mL and 60 pg/mL | Concentration of glucagon in the blood ([1]; 0 min (predose), nasal 2 glucagon unit/30 mg, individual cases No. 35-36 in order): 53 pg/mL and 97 pg/mL | absorption through nasal route ([1]; 0.4 and 2 glucagon unit): high extent of absorption | Concentration of glucagon in the blood ([1]; 5 min, nasal 0.4 glucagon unit/30 mg, individual cases No. 33-34 in order): 115 pg/mL and 65 pg/mL | Concentration of glucagon in the blood ([1]; 5 min, nasal 2 glucagon unit/30 mg, individual cases No. 35-36 in order): 76 pg/mL and 109 pg/mL | Concentration of glucagon in the blood ([1]; 10 min, nasal 0.4 glucagon unit/30 mg, individual cases No. 33-34 in order): 119 pg/mL and 77 pg/mL | Concentration of glucagon in the blood ([1]; 10 min, nasal 2 glucagon unit/30 mg, individual cases No. 35-36 in order): 116 pg/mL and 104 pg/mL | Concentration of glucagon in the blood ([1]; 15 min, nasal 0.4 glucagon unit/30 mg, individual cases No. 33-34 in order): 130 pg/mL and 72 pg/mL | Concentration of glucagon in the blood ([1]; 15 min, nasal 2 glucagon unit/30 mg, individual cases No. 35-36 in order): 85 pg/mL and 96 pg/mL | Concentration of glucagon in the blood ([1]; 20 min, nasal 0.4 glucagon unit/30 mg, individual cases No. 33-34 in order): 127 pg/mL and 79 pg/mL | Concentration of glucagon in the blood ([1]; 20 min, nasal 2 glucagon unit/30 mg, individual cases No. 35-36 in order): 102 pg/mL and 118 pg/mL | Concentration of glucagon in the blood ([1]; 30 min, nasal 0.4 glucagon unit/30 mg, individual cases No. 33-34 in order): 116 pg/mL and 86 pg/mL | Concentration of glucagon in the blood ([1]; 30 min, nasal 2 glucagon unit/30 mg, individual cases No. 35-36 in order): 56 pg/mL and 100 pg/mL | Concentration of glucagon in the blood ([1]; 45 min, nasal 0.4 glucagon unit/30 mg, individual cases No. 33-34 in order): 121 pg/mL and 75 pg/mL | Concentration of glucagon in the blood ([1]; 45 min, nasal 2 glucagon unit/30 mg, individual cases No. 35-36 in order): 94 pg/mL and 105 pg/mL | Concentration of glucagon in the blood ([1]; 60 min, nasal 0.4 glucagon unit/30 mg, individual cases No. 33-34 in order): 137 pg/mL and 61 pg/mL | Concentration of glucagon in the blood ([1]; 60 min, nasal 2 glucagon unit/30 mg, individual cases No. 35-36 in order): 79 pg/mL and 122 pg/mL | Concentration of glucagon in the blood ([1]; 90 min, nasal 0.4 glucagon unit/30 mg, individual cases No. 33-34 in order): 122 pg/mL and 66 pg/mL | Concentration of glucagon in the blood ([1]; 90 min, nasal 2 glucagon unit/30 mg, individual cases No. 35-36 in order): 60 pg/mL and 117 pg/mL | Concentration of glucagon in the blood ([1]; 120 min, nasal 0.4 glucagon unit/30 mg, individual cases No. 33-34 in order): 108 pg/mL and 57 pg/mL | Concentration of glucagon in the blood ([1]; 120 min, nasal 2 glucagon unit/30 mg, individual cases No. 35-36 in order): 69 pg/mL and 99 pg/mL | Concentration of glucagon in the blood ([1]; 150 min, nasal 0.4 glucagon unit/30 mg, individual cases No. 33-34 in order): 111 pg/mL and 76 pg/mL | Concentration of glucagon in the blood ([1]; 150 min, nasal 2 glucagon unit/30 mg, individual cases No. 35-36 in order): 69 pg/mL and 106 pg/mL | Concentration of glucagon in the blood ([1]; 180 min, nasal 0.4 glucagon unit/30 mg, individual cases No. 33-34 in order): 110 pg/mL and 74 pg/mL | Concentration of glucagon in the blood ([1]; 180 min, nasal 2 glucagon unit/30 mg, individual cases No. 35-36 in order): 60 pg/mL and 105 pg/mL | absorption through nasal route [2]: high extent of absorption | Concentration of glucagon in the blood ([2]; 0 min (predose)): 34 pg/mL and 56 pg/mL and 42 pg/mL and 48 pg/mL | Concentration of glucagon in the blood ([2]; 5 min): 73 pg/mL and 79 pg/mL and 80 pg/mL and 53 pg/mL | Concentration of glucagon in the blood ([2]; 10 min): 97 pg/mL and 91 pg/mL and 80 pg/mL and 44 pg/mL | Concentration of glucagon in the blood ([2]; 15 min): 86 pg/mL and 79 pg/mL and 83 pg/mL and 53 pg/mL | Concentration of glucagon in the blood ([2]; 20 min): 85 pg/mL and 89 pg/mL and 82 pg/mL and 50 pg/mL | Concentration of glucagon in the blood ([2]; 30 min): 71 pg/mL and 77 pg/mL and 90 pg/mL and 55 pg/mL | Concentration of glucagon in the blood ([2]; 45 min): 73 pg/mL and 89 pg/mL and 76 pg/mL and 49 pg/mL | Concentration of glucagon in the blood ([2]; 60 min): 64 pg/mL and 79 pg/mL and 77 pg/mL and 46 pg/mL | Concentration of glucagon in the blood ([2]; 90 min): 62 pg/mL and 78 pg/mL and 73 pg/mL and 47 pg/mL | Concentration of glucagon in the blood ([2]; 120 min): 56 pg/mL and 79 pg/mL and 88 pg/mL and 46 pg/mL | Concentration of glucagon in the blood ([2]; 150 min): 52 pg/mL and 67 pg/mL and 79 pg/mL and 54 pg/mL | Concentration of glucagon in the blood ([2]; 180 min): 51 pg/mL and 66 pg/mL and 62 pg/mL and 50 pg/mL | absorption through nasal route [3]: high extent of absorption | Concentration of glucagon in the blood ([3]; 0 min (predose), nasal 1.2 glucagon unit/30 mg, individual cases No. 17-20 in order): 51 pg/mL and 46 pg/mL and 36 pg/mL and 68 pg/mL | absorption into the body [4]: well absorbed into the body | clinical effects [4]: high clinical effects
